From article PMC7979765, “trans-Translation inhibitors bind to a novel site on the ribosome and clear Neisseria gonorrhoeae in vivo” (Nature Communications, 2021)
Values joined by “and” are separate entries in the source; they are usually repeats but may differ in a detail not shown here. Identical values can stand only once. Like-named read-outs stand apart in the source and are kept apart here.

Experiments:
trans-translation = test: microbe, parasite or virus in culture; assay type: cell-based, Escherichia coli; settings: for Luminescence readout (Envision plate reader) / Luminescence, background subtracted (DMSO control): per replicate
Experimental: To verify that MBX-4132 retains activity as an inhibitor of trans-translation, we measured its dose-dependent activity against the non-stop luciferase reporter assay strain E. coli SB75 ΔtolC::kan (pluc-trpAt) essentially as described, with modifications. Briefly, serial 1.5-fold dilutions of MBX-4132 in DMSO were transferred to 96-well assay plates (Costar 3195), followed by the addition of 50 µl of an overnight culture of SB75 ΔtolC::kan (pluc-trpAt) that had been diluted to a final OD600 of 0.4 with LB media supplemented with 100 µg ampicillin/ml and 1 mM IPTG. […] The assay plates were incubated at room temperature for 2 h, and 50 µl of BrightGlo (Promega) bioluminescence reagent was added to each well. After 10 min incubation, bioluminescence intensity was measured using an Envision multi-label plate reader (Perkin Elmer). Each assay comprised three technical replicates, and the experiment was repeated three times. The fold induction for each MBX-4132 treated sample as compared to the DMSO-only sample was calculated for each technical replicate, and the average and standard deviation of the three technical was calculated. The IC50 was determined using a 4-parameter nonlinear curve fitting algorithm (GraphPad Prism).

[1] = Serum protein binding, murine; assay type: in vitro ADME, mouse; settings: for fraction unbound: mouse, serum
Experimental: Serum protein binding was determined using an equilibrium dialysis method as described. The amount of compound in each chamber (buffer and serum) was measured using methods for reverse-phase liquid chromatography/mass spectroscopy methods that were customized for each compound.

[2] = Escherichia coli, E. coli non-stop luciferase reporter, Fig. 1B, read-out: in vivo luc-trpAt IC50
[3] = [Compound] 0.0625 µM, listed as MBX-3535
[4] = [Compound] 0.125 µM, listed as MBX-3535
[5] = [Compound] 0.1875 µM, listed as MBX-3535
[6] = [Compound] 0.25 µM, listed as MBX-3535
[7] = [Compound] 0.375 µM, listed as MBX-3535
[8] = [Compound] 0.5 µM, listed as MBX-3535
[9] = [Compound] 0.75 µM, listed as MBX-3535
[10] = [Compound] 1 µM, listed as MBX-3535
[11] = [Compound] 1.5 µM, listed as MBX-3535

O=C(Nc1nnc(-c2ccc(F)cc2)o1)N1CCc2ccccc2C1 [MBX-4132]
IC50 (trans-translation; [2]): 600 nM
fold induction at 0.046875 µM (trans-translation; Escherichia coli, read-out: fold induction, AVE 190919+190925, [4132] 0.046875 uM): 1.01
fold induction at 0.0625 µM (trans-translation; Escherichia coli, read-out: fold induction, AVE 190919+190925, [4132] 0.0625 uM): 0.976
fold induction at 0.09375 µM (trans-translation; Escherichia coli, read-out: fold induction, AVE 190919+190925, [4132] 0.09375 uM): 1.01
fold induction at 0.125 µM (trans-translation; Escherichia coli, read-out: fold induction, AVE 190919+190925, [4132] 0.125 uM): 1.05
fold induction at 0.1875 µM (trans-translation; Escherichia coli, read-out: fold induction, AVE 190919+190925, [4132] 0.1875 uM): 1.2
fold induction at 0.25 µM (trans-translation; Escherichia coli, read-out: fold induction, AVE 190919+190925, [4132] 0.25 uM): 1.35
fold induction at 0.375 µM (trans-translation; Escherichia coli, read-out: fold induction, AVE 190919+190925, [4132] 0.375 uM): 1.66
fold induction at 0.5 µM (trans-translation; Escherichia coli, read-out: fold induction, AVE 190919+190925, [4132] 0.5 uM): 2
fold induction at 0.75 µM (trans-translation; Escherichia coli, read-out: fold induction, AVE 190919+190925, [4132] 0.75 uM): 2.22
fold induction at 1 µM (trans-translation; Escherichia coli, read-out: fold induction, AVE 190919+190925, [4132] 1 uM): 2.22
fold induction at 1.5 µM (trans-translation; Escherichia coli, read-out: fold induction, AVE 190919+190925, [4132] 1.5 uM): 2.16
fold induction at 0.046875 µM (trans-translation; Escherichia coli, read-out: fold induction, AVE per run, [4132] 0.046875 uM, run 190919 or 190925): 1.09
fold induction at 0.0625 µM (trans-translation; Escherichia coli, read-out: fold induction, AVE per run, [4132] 0.0625 uM, run 190919 or 190925): 1.02
fold induction at 0.09375 µM (trans-translation; Escherichia coli, read-out: fold induction, AVE per run, [4132] 0.09375 uM, run 190919 or 190925): 1.04
fold induction at 0.125 µM (trans-translation; Escherichia coli, read-out: fold induction, AVE per run, [4132] 0.125 uM, run 190919 or 190925): 1.06
fold induction at 0.1875 µM (trans-translation; Escherichia coli, read-out: fold induction, AVE per run, [4132] 0.1875 uM, run 190919 or 190925): 1.16
fold induction at 0.25 µM (trans-translation; Escherichia coli, read-out: fold induction, AVE per run, [4132] 0.25 uM, run 190919 or 190925): 1.35
fold induction at 0.375 µM (trans-translation; Escherichia coli, read-out: fold induction, AVE per run, [4132] 0.375 uM, run 190919 or 190925): 1.66
fold induction at 0.5 µM (trans-translation; Escherichia coli, read-out: fold induction, AVE per run, [4132] 0.5 uM, run 190919 or 190925): 1.82
fold induction at 0.75 µM (trans-translation; Escherichia coli, read-out: fold induction, AVE per run, [4132] 0.75 uM, run 190919 or 190925): 1.93
fold induction at 1 µM (trans-translation; Escherichia coli, read-out: fold induction, AVE per run, [4132] 1 uM, run 190919 or 190925): 1.9
fold induction at 1.5 µM (trans-translation; Escherichia coli, read-out: fold induction, AVE per run, [4132] 1.5 uM, run 190919 or 190925): 1.86
fold induction, AVE per run (trans-translation; [4132] 0.046875 uM, run 190919 or 190925, 0.046875 µM): 0.9318
fold induction, AVE per run (trans-translation; [4132] 0.0625 uM, run 190919 or 190925, 0.0625 µM): 0.9331
fold induction, AVE per run (trans-translation; [4132] 0.09375 uM, run 190919 or 190925, 0.09375 µM): 0.9749
fold induction, AVE per run (trans-translation; [4132] 0.125 uM, run 190919 or 190925, 0.125 µM): 1.0347
fold induction, AVE per run (trans-translation; [4132] 0.1875 uM, run 190919 or 190925, 0.1875 µM): 1.234
fold induction, AVE per run (trans-translation; [4132] 0.25 uM, run 190919 or 190925, 0.25 µM): 1.356
fold induction, AVE per run (trans-translation; [4132] 0.375 uM, run 190919 or 190925, 0.375 µM): 1.653
fold induction, AVE per run (trans-translation; [4132] 0.5 uM, run 190919 or 190925, 0.5 µM): 2.18
fold induction, AVE per run (trans-translation; [4132] 0.75 uM, run 190919 or 190925, 0.75 µM): 2.51
fold induction, AVE per run (trans-translation; [4132] 1 uM, run 190919 or 190925, 1 µM): 2.546
fold induction, AVE per run (trans-translation; [4132] 1.5 uM, run 190919 or 190925, 1.5 µM): 2.459
Serum binding (% bound) Murine ([1]; Replicate 1/2, Eurofins): 99.9% and 95.5%
fraction unbound ([1]; Average Value, Eurofins, read-out: Serum binding (% bound) Murine (converted)): 0.023
fraction unbound ([1]; Reported value, Eurofins, read-out: Serum binding (% bound) Murine (converted)): 0.02

O=C(Nc1nnc(-c2ccc(F)cc2)o1)c1ccc(Cl)cc1 [KKL-35, 4-chloro-N-(5-(4-fluorophenyl)-1,3,4-oxadiazol-2-yl)benzamide]
IC50 (trans-translation; Eco Luc reporter, one value per replicate, listed as MBX-3535, read-out: IC50): 138 nM and 152 nM
IC50 (trans-translation; [2]): 100 nM
IC50 (trans-translation; Escherichia coli, Eco Luc reporter, one value per replicate, read-out: IC50): 156 nM
Luminescence readout (Envision plate reader) (trans-translation; [Compound] 0.046875 µM, listed as MBX-3535): 793720 and 792160 and 789800
Luminescence readout (Envision plate reader) (trans-translation; [3]): 778080 and 758560 and 769120
Luminescence, background subtracted (DMSO control) (trans-translation; [3]): -25080 and -11160 and -10320
Luminescence readout (Envision plate reader) (trans-translation; [Compound] 0.09375 µM, listed as MBX-3535): 796160 and 783440 and 809640
Luminescence readout (Envision plate reader) (trans-translation; [4]): 838680 and 824680 and 839280
Luminescence, background subtracted (DMSO control) (trans-translation; [4]): 35520 and 54960 and 59840
Luminescence readout (Envision plate reader) (trans-translation; [5]): 931120 and 911280 and 917880
Luminescence, background subtracted (DMSO control) (trans-translation; [5]): 127960 and 141560 and 138440
Luminescence readout (Envision plate reader) (trans-translation; [6]): 975560 and 925440 and 953800
Luminescence, background subtracted (DMSO control) (trans-translation; [6]): 172400 and 155720 and 174360
Luminescence readout (Envision plate reader) (trans-translation; [7]): 918760 and 868800 and 899520
Luminescence, background subtracted (DMSO control) (trans-translation; [7]): 115600 and 99080 and 120080
Luminescence readout (Envision plate reader) (trans-translation; [8]): 894760 and 832920 and 864960
Luminescence, background subtracted (DMSO control) (trans-translation; [8]): 91600 and 63200 and 85520
Luminescence readout (Envision plate reader) (trans-translation; [9]): 938080 and 885720 and 902440
Luminescence, background subtracted (DMSO control) (trans-translation; [9]): 134920 and 116000 and 123000
Luminescence readout (Envision plate reader) (trans-translation; [10]): 1090520 and 985400 and 1035440
Luminescence, background subtracted (DMSO control) (trans-translation; [10]): 287360 and 215680 and 256000
Luminescence readout (Envision plate reader) (trans-translation; [11]): 1101720 and 996520 and 1037480
Luminescence, background subtracted (DMSO control) (trans-translation; [11]): 298560 and 226800 and 258040
fraction unbound ([1]; murine serum, read-out: murine serum binding (% bound)): < 0.01
